Test results: ChEMBL document CHEMBL4483862, “Open-source discovery of chemical leads for next-generation chemoprotective antimalarials” (2018)

Tested on: Plasmodium berghei
Experiment: Luciferase/luciferin-expressing antifolate-resistant parasites were used to infect a culture of HepG2 cells that were pre-incubated with compounds. Infected hepatocytes emit light due to the luciferase reaction. Assay results are presented as the percent inhibition of light emission compared to control. […]
Format: functional
Details: sporozoite; for IC50: read-out: LUCIFERASE INFECTION ASSAY - IC50; for IC90: read-out: LUCIFERASE INFECTION ASSAY - IC90

Compound | IC50 [µM] | IC90 [µM]
CCN1CCN(c2ccc(S(=O)(=O)N3CCCCC3)cc2NC(=O)COc2ccc(Cl)c(C)c2)CC1 | 9.01 | > 10
COCCn1c(SC(C)C(=O)NCC2CCCO2)nc2scc(-c3ccc(F)cc3)c2c1=O (stereo unspecified) | > 10 | > 10
CCN(CC(=O)Nc1ccccc1C(F)(F)F)C(=O)Cn1c(=O)cnc2ccccc21 | > 10 | > 10
Cc1cccc(NC(=O)c2ccc(Cl)c(S(=O)(=O)N3CCc4ccccc43)c2)n1 | > 10 | > 10
Cc1cccn2c(=O)cc(CSc3cc(C(=O)NC4CC4)c4ccccc4n3)nc12 | > 10 | > 10
CCCCOc1ccc(C(=O)NCC(=O)N2CCN(C/C=C/c3ccccc3)CC2)cc1 | 5.03 | 7.33
COc1ccccc1NC(=O)C(=Cc1ccc(N2CCCC2)c([N+](=O)[O-])c1)C(=O)Nc1ccccc1OC | > 10 | > 10
O=C(CC12CC3CC(CC(C3)C1)C2)NCC(=O)Nc1ccc2[nH]c(=O)[nH]c2c1 | > 10 | > 10
CC(=O)N1CCc2cc(C(=O)C(C)OC(=O)/C(=C/c3ccc(F)cc3)c3cccs3)ccc21 (stereo unspecified) | 7.08 | > 10
O=c1cc(CNC(CCCc2ccccc2)c2ccccc2)nc2ccc(Cl)cn12 (stereo unspecified) | > 10 | > 10
O=C(Cn1cccc(C(F)(F)F)c1=O)NC(Cc1ccccc1)c1ccccc1 (stereo unspecified) | > 10 | > 10
COC(=O)/C(O)=C/C(=O)c1c(C)[nH]c(C(=O)OC)c1C | > 10 | > 10
CC(C)(C)C1CCC2(CC1)NC(=O)N(CC(=O)OCC(=O)N1CCN(Cc3ccccc3)C1=O)C2=O (stereo unspecified) | > 10 | > 10
O=C(CN1C(=O)c2cccc([N+](=O)[O-])c2C1=O)OCC(=O)N1CCC(Cc2ccccc2)CC1 | > 10 | > 10
CC(=O)c1csc(NC(=O)c2ccc(CSc3ccccc3)o2)n1 | > 10 | > 10
CON(C)S(=O)(=O)c1ccc(NC(=O)COc2cccc(C(C)(C)C)c2)cc1 | > 10 | > 10
O=[N+]([O-])c1ccc(Nc2nc3ccc(Cl)cc3o2)cc1 | > 10 | > 10
CC(Sc1nc2ccccc2c(=O)n1CCCN1CCOCC1)c1ccc(F)cc1 (stereo unspecified) | > 10 | > 10
O=C(Cc1cccc2ccccc12)NCC(=O)Nc1nc(-c2ccccc2)cs1 | > 10 | > 10
CCOC(=O)c1c(C)[nH]c(C(=O)OCC(=O)NC23CC4CC(CC(C4)C2)C3)c1C | > 10 | > 10
CC(=O)Nc1ccc(/C=C2\S/C(=N\c3cccc4ccccc34)N(Cc3ccccc3F)C2=O)cc1 | 6.52 | > 10
Cc1cc(C)cc(-n2c(SCc3nc4ccccc4n3C(F)F)nc3ccccc3c2=O)c1 | > 10 | > 10
O=C(NC(CCCc1ccccc1)c1ccccc1)c1ccc(N2CCCS2(=O)=O)cc1 (stereo unspecified) | 5.56 | 5.73
O=C(NCc1ccc(Cn2cccn2)cc1)N1CCN(c2ccc(C(F)(F)F)cc2[N+](=O)[O-])CC1 | > 10 | > 10
O=C(Nc1cccc(NC(=O)c2cc(C3CC3)nc3c2nc2n3CCCCC2)c1)c1ccco1 | > 10 | > 10
COc1ccc(Cl)cc1NC(=O)CCN1CCN(c2ncc(C(F)(F)F)cc2Cl)CC1 | 4.95 | 9.88

Compound | IC50 [µM] | IC90 [µM]
O=C(Nc1ncccc1O)c1ccc(S(=O)(=O)NCCc2cccs2)cc1 | 0.134 | 0.176
O=C(CN1CCN(C(c2ccc(F)cc2)c2ccc(F)cc2)CC1)Nc1nnc(-c2ccccc2)o1 | 1.23 | 1.43
O=C(CCc1c[nH]c2ccccc12)Nc1ccc(N2CCc3sccc3C2)nc1 | 8.67 | > 10
CC(=O)N1CCN(S(=O)(=O)c2ccc(C(=O)NCCCCCCC(C)C)cc2)CC1 | > 10 | > 10
COCCOc1ccc(C(F)(F)F)cc1NC(=O)COc1ccc2ccc(=O)oc2c1 | > 10 | > 10
CCCCN(C)S(=O)(=O)c1ccc(NC(=O)c2ccc3nccnc3c2)cc1 | > 10 | > 10
Cc1cc(C(=O)CN(C)Cc2nc(=O)c3ccccc3[nH]2)c(C)n1CC1COc2ccccc2O1 (stereo unspecified) | 0.371 | > 10
Cc1cc(N(CCC#N)C(=O)Cn2ncc(Cl)c(Cl)c2=O)ccc1Cl | 5.68 | 5.85
CC(C)CCCC(C)NC(=O)CSCc1cccc(C(=O)O)c1 (stereo unspecified) | > 10 | > 10
CN1CCN(c2ccc(Cl)cc2NC(=O)CCc2nc3ccccc3s2)CC1 | > 10 | > 10
Cc1cc(=O)oc2cc(NCC(=O)Nc3cc4c(cc3Cl)OCCO4)ccc12 | > 10 | > 10
CCOC(=O)c1c(NC(=O)CSc2nnc(N)[nH]2)sc(Br)c1-c1ccccc1 | 6.28 | > 10
O=S(=O)(NCc1nnc2n1-c1ccccc1CC2)c1ccc(C2CCCCC2)cc1 | > 10 | > 10
CCCC1C/C(=C/c2ccc(C(=O)NC)cc2)C(=O)/C(=C/c2ccc(C(=O)NC)cc2)C1 (stereo unspecified) | 3.29 | 3.86
Cc1cc(=O)n2nc(C(F)(F)F)n(CC(=O)Nc3ccc(Sc4ccc(C)c(C)c4)cc3)c2c1 | > 10 | > 10
Cc1ccc(CN(C)C(=O)NNC(=O)c2ccccc2)c(C)c1 | > 10 | > 10
COc1cc(/C=C/C(=O)Nc2nc3c(s2)CC(C)CC3)cc(OC)c1 (stereo unspecified) | > 10 | > 10
O=C(Nc1cccc([N+](=O)[O-])c1)NC1CCSc2ccc(F)cc21 (stereo unspecified) | 3.86 | 4.49
CC(C)CN(C(=O)COC(=O)/C=C/c1nc2ccccc2s1)c1c(N)n(Cc2ccccc2)c(=O)[nH]c1=O | 3.46 | 3.98
O=C(CSc1nc2cc(S(=O)(=O)Nc3ccccc3Cl)ccc2o1)NCc1ccccc1 | > 10 | > 10
CCN(Cc1ccc2c(c1)OCCO2)C(=O)C1CCN(c2ncnc3sc(C)c(C)c23)CC1 | > 10 | > 10
N#C/C(=C\c1ccc2c(c1)OCCO2)c1ccc(C(F)(F)F)cn1 | > 10 | > 10
CC(=O)N(c1nc(/C=C/C(=O)c2ccc(F)c(Br)c2)cs1)c1ccc(F)cc1F | > 10 | > 10
Cc1nc(C(C)(C)C)nc2sc(C(=O)NNC(=O)c3ccccn3)c(C)c12 | 8.36 | > 10
CC(=O)N1CCc2cc(NC(=O)Cn3c(COc4ccc5ccccc5c4)nc4ccccc43)ccc21 | > 10 | > 10
Cc1ccc(-c2noc(CCCN3CCN(C(=O)Cn4cnc5c(C)cccc5c4=O)CC3)n2)cc1 | > 10 | > 10

Compound | IC50 [µM] | IC90 [µM]
CCN1CCN(c2ccc(NC(=O)CSc3nc4ccccc4s3)c(C)c2)CC1 | > 10 | > 10
CN(C)S(=O)(=O)c1ccc(NC(=O)COc2ccc(Oc3ccc(C(F)(F)F)cn3)cc2)cc1 | > 10 | > 10
CCOc1ccc(-c2nc(CSC(C)C(=O)Nc3c(Cl)cccc3Cl)cs2)cc1 (stereo unspecified) | > 10 | > 10
CCOc1ccc(N2C(=O)c3ccccc3C(C=NNc3ccc(S(=O)(=O)N(CC)CC)cc3[N+](=O)[O-])C2=O)cc1 (stereo unspecified) | > 10 | > 10
COc1ccc(CN(CC(=O)NCCc2ccc(F)cc2)C(C)Cc2cccs2)cc1 (stereo unspecified) | > 10 | > 10
CCc1ccc(C(=O)C(C)Sc2ccc(S(=O)(=O)N3CCOCC3)cn2)cc1 (stereo unspecified) | > 10 | > 10
CC(=O)N1C=Cc2ccccc2C1CC(=O)Nc1ccc(Cl)c(S(=O)(=O)N2CCCC2)c1 (stereo unspecified) | > 10 | > 10
CCn1ncc2c(C(=O)Nc3nc(-c4ccc(OC)cc4OC)cs3)cc(-c3cccs3)nc21 | > 10 | > 10
CN(CC(=O)Nc1ccc(-c2nnc3n2CCCCC3)cc1)C1CCS(=O)(=O)C1 (stereo unspecified) | > 10 | > 10
Cc1ccc(S(=O)(=O)N(C)CC(=O)N(C)Cc2ccccc2OC(F)(F)F)cc1C | > 10 | > 10
CC(=O)NCc1ccc(-c2csc(NC(=O)c3cc(-c4ccco4)nc4c3c(C)nn4C)n2)cc1 | > 10 | > 10
COc1ccc(S(=O)(=O)N2CCN(C(=O)c3sc4nc5n(c(=O)c4c3C)CCCCC5)CC2)cc1 | > 10 | > 10
O=C(Nc1nc(-c2ccc(Cl)cc2Cl)cs1)C1CCN(c2ccc(Cl)nn2)CC1 | > 10 | > 10
Nc1nnc(SCC(=O)N(Cc2ccccc2)c2nc(-c3ccc(Cl)cc3)cs2)[nH]1 | > 10 | > 10
CCOC(=O)c1ccc(N2CCN(C(=O)CCc3cc(C(C)(C)C)c(O)c(C(C)(C)C)c3)CC2)nc1 | > 10 | > 10
CCN(c1ccccc1)S(=O)(=O)c1ccc(NNC(=O)Nc2cccc3ccccc23)nc1 | 8.75 | > 10
CCOCCCn1c(SCc2nc(-c3cccs3)oc2C)nc2sc(C)c(C)c2c1=O | > 10 | > 10
COC(=O)/C=C/c1ccc(OCC(O)COc2ccc(C(C)(C)C)cc2)c(OC)c1 (stereo unspecified) | > 10 | > 10
N#Cc1cccc(/C=C/C(=O)c2ccc(S(=O)(=O)N3CCCC3)cc2)c1 | > 10 | > 10
Cc1ccc(S(=O)(=O)Nc2cccc(C(=O)NN(C)c3ccccc3)c2)cc1F | > 10 | > 10
O=C(Nc1ccc(-c2nc(-c3ccc(O)c(O)c3)cs2)cc1)c1cccs1 | > 10 | > 10
CCCn1c(N)c(C(=O)CSc2nnc(-c3ccccc3)c(-c3ccccc3)n2)c(=O)n(C)c1=O | > 10 | > 10
CC1CN(S(=O)(=O)NCC(c2ccccc2Cl)c2c[nH]c3ccccc23)CC(C)O1 (stereo unspecified) | > 10 | > 10
C=CCN(C(=O)C1CCN(S(=O)(=O)c2cccs2)CC1)c1nc2c(s1)CCCC2 | > 10 | > 10
COc1ccc(-c2cc(NC(=O)C(C)NS(=O)(=O)c3ccc(C)cc3)ccc2OC(F)F)cc1 (stereo unspecified) | 8.3 | > 10
CC(=O)Nc1cccc(C(=O)/C=C/c2cn(-c3ccccc3)nc2-c2ccncc2)c1 | > 10 | > 10
